Data published in publication PMC9356039, “Multifunctional synthetic nano-chaperone for peptide folding and intracellular delivery” (Nature Communications, 2022).
Each block holds one molecule with its values, some of them ahead of it.

Key:
[1] = target: synthetic p53 peptide (p53pep); assay: fluorescence polarisation; 50 nM FAM-labelled peptide incubated with MDM2(1-118) at various concentrations; PBS pH 7.4 with 0.01% Tween20, 10 mM DTT, 2% DMSO; room temperature; Kd by nonlinear regression
[2] = target: stapled p53 peptide prepared by click reaction (st-p53pep); assay: as above
[3] = target: MDM2(1-118), a part of the target protein possessing the p53pep binding site (UniProt Q00987)
MDM2(1-118), a part of the target protein possessing the p53pep binding site (UniProt Q00987), sequence (Q00987 1-118): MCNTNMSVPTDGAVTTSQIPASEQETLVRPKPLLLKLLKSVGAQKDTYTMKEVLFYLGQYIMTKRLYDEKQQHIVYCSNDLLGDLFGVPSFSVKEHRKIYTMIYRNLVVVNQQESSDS

[4] = target: T1, MDM2_1-118 (hMDM2 protein) (Homo sapiens, UniProt Q00987); assay: Fluorescence polarization binding affinity; details: peptide 50 nM, PBS pH 7.4, 0.01% Tween20, 10 mM DTT, 2% DMSO, room temperature, N = 3, mean ± SD
T1 construct: purchased SignalChem (Canada)
T1 sequence (Q00987 1-118): as above
Experimental: Each of p53pep and st-p53pep (50 nM) were incubated with MDM2_1-118 with various concentrations in binding assay buffer (PBS pH 7.4 with 0.01% Tween20, 10 mM DTT, 2% DMSO) at room temperature. Binding affinity was measured by fluorescence polarization on a Biotek Synergy Neo2 multi-mode microplate reader. Kd values were determined by nonlinear regression analysis.

proteinase K [5] = target: proteinase K (Parengyodontium album, UniProt P06873); assay: in vitro; assay type: in vitro ADME
proteinase K (Parengyodontium album, UniProt P06873), sequence (P06873 106-384, species assumed): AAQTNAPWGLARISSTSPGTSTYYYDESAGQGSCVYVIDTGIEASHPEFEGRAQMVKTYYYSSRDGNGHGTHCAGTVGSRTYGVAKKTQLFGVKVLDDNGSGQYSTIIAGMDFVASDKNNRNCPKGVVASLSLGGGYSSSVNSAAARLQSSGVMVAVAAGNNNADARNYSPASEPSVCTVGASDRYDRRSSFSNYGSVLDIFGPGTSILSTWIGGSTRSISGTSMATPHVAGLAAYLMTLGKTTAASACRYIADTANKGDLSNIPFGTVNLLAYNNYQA
Experimental: (§1) To investigate whether SNCP8@st-p53pep could effectively suppress tumor growth in vivo, we evaluated the anti-tumor effect of SNCP8@st-p53pep using human liver cancer (HepG2) xenograft bearing mouse model. Mice were treated with SNCP8@st-p53pep and controls by intratumoral injection every three days and tumor volume changes were monitored for 14 days. […] Next, we monitored distribution of TAMRA-SNCP8 (red), FAM-st-p53pep (green), and TAMRA-SNCP8@FAM-st-p53pep in the tumor-bearing mouse overtime after intratumoral injection. As shown in Fig. 5b and Supplementary Fig. 20, green fluorescence signal in the tumor treated with TAMRA-SNCP8@FAM-st-p53pep slowly diminished during 72 h, while signal in tumor treated with FAM-st-p53pep alone quickly disappeared within 24 h. […] To compare the lifetime of st-p53pep in tumor more precisely, we calculated the half-life (t1/2) of green fluorescence decay for each sample by analyzing region of interest (ROI) on the basis of whole-body fluorescence image (Fig. 5c).
(§2) Supplementary Figure 19. The proteolytic degradation of p53pep. Semi-quantitative analysis of protease-mediated degradation of p53pep by using the matrix-assisted laser desorption ionization time-of-flight mass spectrometry ( MALDI-TOF MS).
(§3) (a) Mass spectrum of p53pep without SNCP8 (left) and with SNCP8 (right) over 12 h.
(§4) The cumulative remaining p53pep in short (b) and long (c) periods in different conditions: p53pep (circle) and SNCP8@p53pep (square). Rapid degradation of free p53pep within 1 min is observed while the degradation of p53pep inside the SNCP8 […]
(§5) proteinase K (N = 3, biologically independent samples; mean ± SD).
(§6) (1 picture or pasted object on this page, not shown here)

proteinase K [6] = assay: in vitro; assay type: in vitro ADME; details: isolated enzyme proteinase k
Experimental: as §1, §2, §3, §4, §5, §6

[7] = Water solubility (in words); assay type: physicochemical
[8] = CD spectroscopy, α-helicity by CONTIN-LL; assay type: physicochemical; details: for helix %: CONTINLL from CD spectra, Avg of replicates Ⅰ-Ⅲ; for α-Helicity, helix % avg: CD spectra, CONTINLL, summary table, mean of n = 3
Experimental: CD spectra were measured using a J-810 spectropolarimeter (JASCO, Japan). Spectra were recorded from 250 nm to 190 nm wavelength using a 1 cm path-length cuvette. Scans were repeated five times and averaged. Molar ellipticity was calculated per amino acid residue. The concentrations of SNCP and p53pep were 0.2 mg/mL and 20 μM, respectively. All sample suspensions were incubated at least for 2 days at room temperature before CD measurement. To perform temperature-dependent CD experiments, the spectra were recorded at 10 °C interval over a temperature range of 25 to 75 °C, with 30 min incubation time to reach equilibrium at each temperature. The α-helicity of peptides was calculated by using the CONTIN-LL algorithms provided from the DICHROWEB server.

HepG2 cells = assay: CCK-8 cell viability; assay type: cell-based, human; details: 24 h, 50
Experimental: Human liver cancer cell line HepG2 were grown in DMEM containing 10% FBS and 1% penicillin/streptomycin at 37 °C in a humidified atmosphere of 5% CO2. HepG2 cells (1.2 × 10^5 cells/well) were seeded in a 4-well glass plate for 24 h. Then, SNCPs@st-p53pep (0.02 mg/mL) and st-p53pep alone (2 μM) were added to each well in a serum-free medium for 4 h. After incubation, the cells were carefully rinsed with PBS, and the medium was replaced with a serum-containing fresh medium. After the nucleus was stained with Hoechst 33342 staining kit by manufacturer’s protocol, bright field and fluorescence images were obtained by using a DeltaVision Elite Microscopy System (GE Healthcare, USA). To observe the distribution of SNCP8 and st-p53pep in cells, TAMRA-labeled SNCP8@FAM-labeled st-p53pep (0.25 mg/mL) was treated in the same manner instead of SNCP8@st-p53pep. And then, the Mander’s overlap coefficient (MOC) was calculated in the Image J program (ver. 1.52a) via the JACoP plugin to identify co-localization between fluorescence signals over time. […] The cell viability was determined using cell counting kit-8 (CCK-8) assay by monitoring absorbance at 450 and 670 nm wavelength measured using a microplate reader (Molecular Devices, Inc., USA). The EC50 values of SNCPs@st-p53pep were determined by the logistic curve-fitting method with Origin (OriginLab, USA).

MDM2(1-118), a part of the target protein possessing the p53pep binding site (from UniProt Q00987 1-118) (domain or fragment), sequence (Q00987 1-118): as the sequence (Q00987 1-118) above

Kd [1]: 0.0806 µM
Kd [2]: 0.0277 µM
Molecule: MDM2(1-118), a part of the target protein possessing the p53pep binding site (from UniProt Q00987 1-118) (domain or fragment)

Molecule: synthetic p53 peptide (p53pep)
viability of HepG2 cells (CCK-8) at the corresponding dose of SNCP8@p53pep (unstapled peptide delivered in SNCP8) [3]: > 80%

Kd [4]: 0.0806 ± 0.00233 µM
time of degradation by proteinase K (proteinase K [5]): ≤ 1 min
remaining at 1 min (proteinase K [6]): 16.9%
remaining at 0.05 h (proteinase K [6]): 8.39%
remaining at 5 min (proteinase K [6]): 5.56%
remaining at 10 min (proteinase K [6]): 3.21%
remaining at 0.5 h (proteinase K [6]): 6.68%
remaining at 1 h (proteinase K [6]): 9.04%
remaining at 12 h (proteinase K [6]): 3.85%
solubility in water (in words) [7]: insoluble in water
helix % ([8]; 25C): 39.4%
α-Helicity, helix % avg ([8]; 25 ℃): 39.4%
helix % ([8]; 35C): 35.9%
α-Helicity, helix % avg ([8]; 35 ℃): 35.9%
helix % ([8]; 45C): 37.5%
α-Helicity, helix % avg ([8]; 45 ℃): 37.5%
helix % ([8]; 55C): 36.5667%
helix % ([8]; 65C): 34.0667%
helix % ([8]; 75C): 35.9667%
Molecule: C#CCCC(=O)NCCCC[C@@H](NC(=O)[C@H](Cc1ccccc1)NC(=O)[C@@H](NC(=O)[C@H](CCC(N)=O)NC(=O)[C@H](CCC(N)=O)NC(=O)[C@H](CO)NC(=O)[C@H](CCC(N)=O)NC(=O)CNC(=O)CNC(=O)c1ccc2c(c1)C(=O)OC21c2ccc(O)cc2Oc2cc(O)ccc21)[C@@H](C)O)C(=O)N[C@@H](CC(N)=O)C(=O)N[C@@H](CC(C)C)C(=O)N[C@@H](Cc1c[nH]c2ccccc12)C(=O)N[C@@H](CCCNC(=N)N)C(=O)N[C@@H](CC(C)C)C(=O)N[C@@H](CC(C)C)C(=O)N[C@@H](CCCN=[N+]=[N-])C(=O)N[C@@H](CCC(N)=O)C(=O)N[C@@H](CC(N)=O)C(N)=O [p53pep]
cell viability at corresponding dose (HepG2 cells): more than 80%
